ChEMBL document CHEMBL1955764, “Synthesis and biological activity of 23-ethylidene-26-hydroxy-22-oxocholestane derivatives from spirostanic sapogenins” (Eur J Med Chem, 2012)
pIC50: −log10 of the molar value. Calls of active or inactive are those of the source. No cut-off for these calls is given here.

Columns and labels:
[1] = tested on: BJ; assay: Cytotoxicity against human BJ cells after 72 hrs by calcein AM assay; type: cell-based
[2] = tested on: HeLa; assay: Cytotoxicity against human HeLa cells after 72 hrs by calcein AM assay; type: functional, cell-based
[3] = tested on: CCRF-CEM; assay: Cytotoxicity against human CEM cells after 72 hrs by calcein AM assay; type: functional, cell-based
[4] = tested on: MCF7; assay: Cytotoxicity against human MCF7 cells after 72 hrs by calcein AM assay; type: functional, cell-based; conditions: MCF7, 72 h
[5] = tested on: CCRF-CEM; assay: Cell cycle arrest in human CEM cells assessed as decrease of procaspase 3 level after 24 hrs by Western blotting analysis; type: functional, cell-based
[6] = tested on: CCRF-CEM; assay: Cell cycle arrest in human CEM cells assessed as accumulation at sub-G1 phase at 5 to 50 uM after 24 hrs using propidium iodide staining by flow cytometric analysis; type: functional, cell-based
[7] = tested on: CCRF-CEM; assay: Cell cycle arrest in human CEM cells assessed as accumulation at G0/G1 phase at 5 to 50 uM after 24 hrs using propidium iodide staining by flow cytometric analysis; type: functional, cell-based
[8] = tested on: CCRF-CEM; assay: Cell cycle arrest in human CEM cells assessed as accumulation at G1 phase after 24 hrs using propidium iodide staining by flow cytometric analysis; type: functional, cell-based
[9] = tested on: CCRF-CEM; assay: Cell cycle arrest in human CEM cells assessed as accumulation at G2/M phase at 5 to 50 uM after 24 hrs using propidium iodide staining by flow cytometric analysis; type: functional, cell-based
[10] = tested on: CCRF-CEM; assay: Cell cycle arrest in human CEM cells assessed as decrease of procaspase 3 level at 50 uM after 24 hrs by Western blotting analysis; type: functional, cell-based
[11] = tested on: CCRF-CEM; assay: Induction of apoptosis in human CEM cells assessed as increase of caspase 3/7 activity using Ac-DEVD-AMC as substrate at 50 uM after 24 hrs relative to control; type: functional
[12] = tested on: CCRF-CEM; assay: Cell cycle arrest in human CEM cells assessed as increase of cleaved of PARP level at 50 uM after 24 hrs by Western blotting analysis; type: functional, cell-based
[13] = tested on: CCRF-CEM; assay: Cell cycle arrest in human CEM cells assessed as increase of cleaved of PARP level after 24 hrs by Western blotting analysis; type: functional, cell-based

| SMILES | pIC50 [1] | pIC50 [2] | pIC50 [3] | pIC50 [4] | Activity [5] | Activity [6] | Activity [7] | Activity [8] | Activity [9] | Activity [10] | fold change (FC) [11] | Activity [12] | Activity [13] |
| --- | --- | --- | --- | --- | --- | --- | --- | --- | --- | --- | --- | --- | --- |
| CC(=O)O[C@H]1CC[C@@]2(C)C(=CC[C@H]3[C@@H]4C[C@H](OC(C)=O)[C@H]([C@H](C)C(=O)C5=C(C)OC[C@H](C)C5)[C@@]4(C)CC[C@@H]32)C1 | < 4.30 | < 4.30 | 4.39 | < 4.30 | – | – | – | – | – | – | – | – | – |
| CC(=O)O[C@H]1CC[C@@]2(C)C(=CC[C@H]3[C@@H]4C[C@H](OC(C)=O)[C@H]([C@H](C)C(=O)C5=C(C)OC[C@H](C)C5)[C@@]4(C)C(=O)C[C@@H]32)C1 | < 4.30 | < 4.30 | 4.98 | 4.33 | – | – | – | – | – | – | – | – | – |
| CC(C)CCC[C@@H](C)[C@H]1CC[C@H]2[C@@H]3CC=C4C[C@@H](O)CC[C@]4(C)[C@H]3CC[C@]12C [CHOLESTEROL] | < 4.30 | < 4.30 | < 4.30 | < 4.30 | – | – | – | – | – | – | – | – | – |
| CC(=O)O[C@H]1CC[C@@]2(C)C(=CC[C@H]3[C@@H]4C[C@H](OC(C)=O)[C@H]([C@H](C)C(=O)C5=C(C)OC[C@H](C)C5)[C@@]4(C)[C@H](O)C[C@@H]32)C1 | < 4.30 | < 4.30 | 4.86 | < 4.30 | – | – | – | – | – | – | – | – | – |
| C/C=C(\C[C@@H](C)CO)C(=O)[C@@H](C)[C@H]1[C@@H](OC(C)=O)C[C@H]2[C@@H]3CC=C4C[C@@H](OC(C)=O)CC[C@]4(C)[C@H]3CC(=O)[C@]12C | < 4.30 | < 4.30 | 4.72 | < 4.30 | – | – | – | – | – | – | – | – | – |
| C/C=C(\C[C@@H](C)CO)C(=O)[C@@H](C)[C@H]1[C@@H](OC(C)=O)C[C@H]2[C@@H]3CC=C4C[C@@H](OC(C)=O)CC[C@]4(C)[C@H]3CC[C@]12C | < 4.30 | < 4.30 | 4.95 | < 4.30 | Dose-dependent effect | Active | Active | Dose-dependent effect | Active | Active | 2.4 | Active | Dose-dependent effect |
| C/C=C(\C[C@@H](C)CO)C(=O)[C@@H](C)[C@H]1[C@@H](OC(C)=O)C[C@H]2[C@@H]3CC[C@H]4C[C@@H](OC(C)=O)CC[C@]4(C)[C@H]3CC[C@]12C | < 4.30 | < 4.30 | 5.23 | 4.83 | Dose-dependent effect | Active | Active | Dose-dependent effect | Active | Active | 4.3 | Active | Dose-dependent effect |
| CC(=O)O[C@H]1CC[C@@]2(C)[C@@H](CC[C@@H]3[C@@H]2CC[C@]2(C)[C@@H]([C@H](C)C(=O)C4=C(C)OC[C@H](C)C4)[C@@H](OC(C)=O)C[C@@H]32)C1 | < 4.30 | < 4.30 | 4.68 | 4.45 | – | – | – | – | – | – | – | – | – |
